In brackets after ≈: the same amount, converted by molar mass. Positions of bridges follow the written chain, without caps; N, C: chain ends. Non-standard residues stand in square brackets, D forms with d. Residues, ends and D or L forms follow the SMILES beside them. *: point of attachment. CH2CH2OBz(4-tBu) = CC(C)(C)c1ccc(C(=O)OCC*)cc1; Ethyl(2-butanoyloxy) = CCCC(=O)OCC*; Dab = NCC[C@H](N)C(=O)O; X8 = O=C(OCC*)C1CCCC1; X1 = CCCCCC(=O)OCC*

Here are results for 4 compounds from patent US20250282827A1, “LIPIDATED POLYMYXIN ANALOGUES” (priority 2021, published 2025).

The test system of one experiment is E. coli ATCC 25922. The experiment is classed as cell-based, Escherichia coli. As to conditions: ATCC 25922. The source says:
(§1) All 81 compounds prepared in Examples 2 and 3 underwent screening against a panel of Gram-negative bacterium to assess their ability to inhibit bacterial growth. […] The median value is presented.

In a further experiment the test system is A. baumannii ATCC 19606. Format: cell-based, Acinetobacter baumannii. Particulars: ATCC 19606.
Description: as §1

Another experiment deals with P. aeruginosa ATCC 27853. The experiment is classed as cell-based, Pseudomonas aeruginosa. As to conditions: ATCC 27853.
Description: as §1

The next experiment deals with K. pneumoniae ATCC 33495. The experiment is classed as cell-based, Klebsiella pneumoniae. As to conditions: ATCC 33495.
Description: as §1

The subject of experiment [1] is K. pneumoniae ATCC 700603. The experiment is classed as cell-based, Klebsiella pneumoniae. Particulars: ATCC 700603.
Description: as §1

Experiment [2] deals with K. pneumoniae ATCC MS6671. Format: cell-based, Klebsiella pneumoniae. As to conditions: ATCC MS6671.
Description: as §1

A further experiment relates to E. coli ATCC MS8345. Format: cell-based, Escherichia coli. As to conditions: ATCC MS8345.
Description: as §1
Expansion of the polymyxin macrocycle by substituting […]) offered little advantage in antimicrobial activity but was generally well tolerated although for A. baumanni and P. aeruginosa this was detrimental.

Consider `CC(C)C[C@@H]1NC(=O)[C@@H](Cc2ccccc2)NC(=O)[C@H](CCN)NC(=O)[C@@H](NC(=O)[C@H](CCN)NC(=O)[C@@H](NC(=O)[C@H](N)CSCCOC(=O)C2CCCC2)[C@@H](C)O)CCNC(=O)[C@H]([C@@H](C)O)NC(=O)[C@H](CCN)NC(=O)[C@H](CCN)NC1=O` [Compound 102] (H-[dC](X8)T[Dab][Dab][Dab][dF]L[Dab][Dab]T; lactam 4-C), for which the “MIC E. coli ATCC 25922” value against E. coli ATCC 25922 is 1 µg/mL (≈ 0.829 µM). Moreover, in the experiment with A. baumannii ATCC 19606, the “MIC A. baumannii ATCC 19606” value was 16 µg/mL (≈ 13.3 µM). The “MIC P. aeruginosa ATCC 27853” value in the experiment with P. aeruginosa ATCC 27853 came out at 2 µg/mL (≈ 1.66 µM). In addition, the “MIC K. pneumoniae ATCC 33495” value in the experiment on K. pneumoniae ATCC 33495 was 1 µg/mL (≈ 0.829 µM). The “MIC K. pneumoniae ATCC 700603” value in experiment [1] was found to be 1 µg/mL (≈ 0.829 µM). In addition, the “MIC K. pneumoniae ATCC MS6671” value in experiment [2] is more than 32 µg/mL. For the same compound, the “MIC E. coli ATCC MS8345” value in the experiment with E. coli ATCC MS8345 was found to be 16 µg/mL (≈ 13.3 µM).
`C[C@@H](O)[C@@H]1NC(=O)[C@H](CCN)NC(=O)[C@H](CCN)NC(=O)[C@H](CSCCOC(=O)c2ccc(C(C)(C)C)cc2)NC(=O)[C@@H](Cc2ccccc2)NC(=O)[C@H](CCN)NC(=O)[C@@H](NC(=O)[C@H](CCN)NC(=O)[C@@H](NC(=O)[C@H](CCN)NC(=O)[C@@H](N)CSCCOC(=O)c2ccc(C(C)(C)C)cc2)[C@@H](C)O)CCNC1=O` [Compound 40] (H-C(CH2CH2OBz(4-tBu))[Dab]T[Dab][Dab][Dab][dF]C(CH2CH2OBz(4-tBu))[Dab][Dab]T; lactam 5-C): the “MIC E. coli ATCC 25922” value in the experiment on E. coli ATCC 25922 was in the range of 2 to 4 µg/mL. The “MIC A. baumannii ATCC 19606” value in the experiment with A. baumannii ATCC 19606 came out at 2 µg/mL (≈ 1.28 µM). In addition, in the experiment with P. aeruginosa ATCC 27853, the “MIC P. aeruginosa ATCC 27853” value was found to be 2 µg/mL (≈ 1.28 µM). Moreover, the “MIC K. pneumoniae ATCC 33495” value against K. pneumoniae ATCC 33495 is 2 to 4 µg/mL. The “MIC K. pneumoniae ATCC 700603” value in experiment [1] is 2 µg/mL (≈ 1.28 µM). The “MIC K. pneumoniae ATCC MS6671” value in experiment [2] was more than 32 µg/mL. The “MIC E. coli ATCC MS8345” value against E. coli ATCC MS8345 was 4 µg/mL (≈ 2.56 µM).
Consider `CCCCCC(=O)OCCSC[C@@H](N)C(=O)N[C@H](C(=O)N[C@@H](CCN)C(=O)N[C@H]1CCNC(=O)[C@H]([C@@H](C)O)NC(=O)[C@H](CCN)NC(=O)[C@H](CCN)NC(=O)[C@H](CC(C)C)NC(=O)[C@@H](Cc2ccccc2)NC(=O)[C@H](CCN)NC1=O)[C@@H](C)O` [Compound 91] (H-[dC](X1)T[Dab][Dab][Dab][dF]L[Dab][Dab]T; lactam 4-C), for which the “MIC E. coli ATCC 25922” value in the experiment with E. coli ATCC 25922 is 1 µg/mL (≈ 0.827 µM). Further, the “MIC A. baumannii ATCC 19606” value against A. baumannii ATCC 19606 amounted to 4 µg/mL (≈ 3.31 µM). The “MIC P. aeruginosa ATCC 27853” value against P. aeruginosa ATCC 27853 stood at 2 µg/mL (≈ 1.65 µM). Further, the “MIC K. pneumoniae ATCC 33495” value against K. pneumoniae ATCC 33495 came out at 1 µg/mL (≈ 0.827 µM). Moreover, the “MIC K. pneumoniae ATCC 700603” value in experiment [1] turned out to be 2 µg/mL (≈ 1.65 µM). Moreover, in experiment [2], the “MIC K. pneumoniae ATCC MS6671” value was more than 32 µg/mL. Further, the “MIC E. coli ATCC MS8345” value against E. coli ATCC MS8345 was determined as 16 µg/mL (≈ 13.2 µM).
With `CCCC(=O)OCCSC[C@H](N)C(=O)N[C@@H](CCN)C(=O)N[C@H](C(=O)N[C@@H](CCN)C(=O)N[C@H]1CCNC(=O)[C@H]([C@@H](C)O)NC(=O)[C@H](CCN)NC(=O)[C@H](CCN)NC(=O)[C@H](CC(C)C)NC(=O)[C@@H](Cc2ccccc2)NC(=O)[C@H](CCN)NC1=O)[C@@H](C)O` [Compound 30] (H-C(Ethyl(2-butanoyloxy))[Dab]T[Dab][Dab][Dab][dF]L[Dab][Dab]T; lactam 5-C), in the experiment on E. coli ATCC 25922, the “MIC E. coli ATCC 25922” value came to 0.5 µg/mL (≈ 0.39 µM). The “MIC A. baumannii ATCC 19606” value against A. baumannii ATCC 19606 worked out at 2 µg/mL (≈ 1.56 µM). In the experiment with P. aeruginosa ATCC 27853, the “MIC P. aeruginosa ATCC 27853” value came out at 2 µg/mL (≈ 1.56 µM). Besides, the “MIC K. pneumoniae ATCC 33495” value in the experiment on K. pneumoniae ATCC 33495 is 0.125 µg/mL (≈ 0.0976 µM). For the same compound, the “MIC K. pneumoniae ATCC 700603” value in experiment [1] came to 0.5 µg/mL (≈ 0.39 µM). The “MIC K. pneumoniae ATCC MS6671” value in experiment [2] was more than 32 µg/mL. Also, in the experiment on E. coli ATCC MS8345, the “MIC E. coli ATCC MS8345” value is 32 µg/mL (≈ 25 µM).
